Article PMC6733935, “A convenient and efficient total solid-phase synthesis of DOTA-functionalized tumor-targeting peptides for PET imaging of cancer” (EJNMMI Research, 2019)
Like-named read-outs stand apart in the source and are kept apart here. Square brackets hold non-standard residues; d marks the D form. Peptide text beside a SMILES is read from it. * marks the point of attachment. DOTA = O=C(O)CN1CCN(CC(=O)O)CCN(CC(=O)*)CCN(CC(=O)O)CC1; Cha = N[C@@H](CC1CCCCC1)C(=O)O; Nle = CCCC[C@H](N)C(=O)O; Ahx = NCCCCCC(=O)O

Tests used:
[1] = test system: BN/GRP receptor-positive MDA-MB-231 tumors; test: Receptor blocking study in MDA-MB-231 tumor-bearing nude mice; type: in vivo
Procedure: For the receptor blocking studies, each animal was injected with excess cold of BN peptide (~ 200 μg) 20 min prior to the radiotracers injection. The animals (n = 2 per group) were sacrificed at 60 min post radiotracers injection and the % ID/g for the tumor and major organs was calculated as stated before.
^68Ga-labeled BN peptides were further investigated in nude mice carrying estrogen-independent and highly aggressive MDA-MB-231 xenografts in order to determine their potential for diagnosis of BN/GRP receptor-positive breast cancer in vivo (Table 4). […] (with 28% washout from the tumors over 2 h). […] When a blocking dose of 300 μg of nonradioactive BN peptide was injected intramuscularly for in vivo saturation of receptors 20 min prior to the administration of radiopeptide, it was observed that the uptake in the tumors was reduced by approximately 80% (0.47 ± 0.06% ID/g blocked vs. 2.32 ± 0.25% ID/g unblocked, P = 0.002), highlighting the specificity of the ^68Ga-labeled BN peptide for respective BN/GRP receptor-positive breast cancer cells. […] The tumor uptake values of other BN peptides varied from 1.78 ± 0.40% to 2.15 ± 0.33% ID/g at 1 h p.i and from 0.84 ± 0.13% to 1.37 ± 0.25% ID/g at 2 h p.i. (Table 4). With the blocking dose, good reduction in the tumors (from 51 to 80%) was attained validating the in vivo tumor receptor specificity of these radiolabeled BN peptides for BN/GRP receptor-positive breast cancer cells.

[2] = test system: PC3 prostate carcinoma xenografts; type: in vivo, nude mice; details: for uptake in the PC3 tumors / tumor-to-blood ratio / tumor-to-muscle ratio: nude mice bearing PC3 xenografts
Procedure: BN/GRP receptor-positive MDA-MB-231 and PC3 cell lines (American Type Culture Collection, Rockville, USA) were grown as monolayers at 37 °C in a humidified atmosphere containing RPMI-1640 culture media with 10% fetal bovine serum (FBS) in tissue culture flasks. Twenty-four hours prior to conducting the tumor implantation, the media was replaced with RPMI-1640/10% FBS. The cells were grown to 80-90% confluency and harvested by trypsinization. After centrifugation, about 50 million cells were suspended in 1 mL media for implantation into mice. To prepare cells for inoculation, MDA-MB-231 or PC3 cancer cells with media were centrifuged, the media decanted, and the cell pellet was mixed with phosphate-buffered saline (PBS) to reach a concentration of approximately 5 million cells per 100 μL PBS.
Based on encouraging biological and tumor-targeting properties, ^68Ga-DOTA(cyclen)-Ahx-BN was further tested in nude mice bearing PC3 prostate carcinoma xenografts. […] Kidney was the only major organ which retained most of the radioactivity (up to 6% ID/g) after 2 h p.i. […] The tumor-to-blood and tumor-to-muscle ratios were 3.27 and 12.62 at 1 h and 2.85 and 11.40 at 2 h p.i., respectively (data not shown).

CCCC[C@H](NC(=O)[C@H](Cc1c[nH]cn1)NC(=O)[C@H](CC1CCCCC1)NC(=O)[C@@H](NC(=O)[C@H](C)NC(=O)[C@H](Cc1c[nH]c2ccccc12)NC(=O)[C@H](CCC(N)=O)NC(=O)[C@H](CS)NC(=O)CNC(=O)CNC(=O)CCCCCNC(=O)CN1CCN(CC(=O)O)CCN(CC(=O)O)CCN(CC(=O)O)CC1)C(C)C)C(=O)N[C@@H](CCSC)C(N)=O [^68Ga-DOTA-Ahx-BN Cyclen, metal not drawn] ({DOTA-Ahx}-GGCQWAV[Cha]H[Nle]M-NH2)
Tumor uptake, blocked ([1]; blocking dose of 300 μg nonradioactive BN peptide 20 min prior to radiopeptide, 1 h p.i., n = 2 per group): 0.47 ± 0.06 % ID/g
reduction of uptake in the tumors with blocking dose ([1]; blocking dose of nonradioactive BN peptide 20 min prior, 1 h p.i.): approximately 80%
blockade of uptake in pancreas with blocking dose ([1]; same blocking dose, maximum blockade): 80%
radioactivity retained in Kidney ([2]; mouse, in vivo): up to 6 % ID/g
uptake in the PC3 tumors ([2]; 1 h p.i.): 2.05 ± 0.54 % ID/g
tumor-to-blood ratio ([2]; 1 h p.i. (data not shown)): 3.27
tumor-to-muscle ratio ([2]; 1 h p.i. (data not shown)): 12.62
uptake in the PC3 tumors ([2]; 2 h p.i.): 1.34 ± 0.22 % ID/g
tumor-to-blood ratio ([2]; 2 h p.i. (data not shown)): 2.85
tumor-to-muscle ratio ([2]; 2 h p.i. (data not shown)): 11.40
